Series [1] concerns the target T1, HIV-integrase (Human immunodeficiency virus type 1 group M subtype B, UniProt P04585).
T1 construct: 0.26 ng of recombinant integrase was incubated with the beads for 90 min at 37 C
The series is described as follows: HIV integrase SPA integration assay (biotin-labeled substrate DNA on streptavidin SPA beads, P33-labeled target DNA). The format is biochemical. Particulars: percent inhibition of HIV-integrase in the presence of 20 μM of compound. The gist of the method: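 Recombinant integrase (0.26 ng) was preloaded 90 min at 37 C onto biotin-substrate DNA (5 pmole) bound to streptavidin SPA beads. Unbound enzyme was washed off before inhibitor and 0.1 fmol P33-labeled target DNA were added. After the EDTA stop (10 mM final), integration was measured as SPA counts (CPM).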

As for `CN(C)C(=O)CON(Cc1ccc(F)cc1)C(=O)C1=C(O)C(=O)N(C)C1` [Compound 72, 4-Hydroxy-1-methyl-5-oxo-2,5-dihydro-1H-pyrrole-3-carboxylic acid dimethylcarbamoylmethoxy-(4-fluoro-benzyl)-amide], the melting point lay in the range of 147 to 149 °C. Further, the inhibition at 20 µM in series [1] worked out at 98.8%.
`CON(Cc1ccc(F)cc1Cl)C(=O)C1=C(O)C(=O)N(C)C1` [Compound 74, 4-Hydroxy-1-methyl-5-oxo-2,5-dihydro-1H-pyrrole-3-carboxylic acid (2-chloro-4-fluoro-benzyl)-methoxy-amide]: the melting point fell in the range of 152 to 155 °C. In addition, in series [1], the inhibition at 20 µM was 97.8%.
For `CN1CC(C(=O)N(C)C(Cc2ccc(Cl)cc2)Cc2ccc(Cl)cc2)=C(O)C1=O` [Compound 75, 4-Hydroxy-1-methyl-5-oxo-2,5-dihydro-1H-pyrrole-3-carboxylic acid [1-(4-chloro-benzyl)-2-(4-chloro-phenyl)-ethyl]-methyl-amide], in that order: 152 to 154 °C and 96.5%.
With `CN1CC(C(=O)N(Cc2ccc(F)cc2)c2ccc(Cl)c(Cl)c2)=C(O)C1=O` [Compound 78, 4-Hydroxy-1-methyl-5-oxo-2,5-dihydro-1H-pyrrole-3-carboxylic acid (3,4-dichloro-phenyl)-(4-fluoro-benzyl)-amide], the melting point was 195 °C (dec.). Also, in series [1], the inhibition at 20 µM was 99.9%.
